{"source": "patent US4728659A", "about": "“Aminomethyl derivatives and preparation process thereof as well as platelet aggregation inhibitors containing same” (SS Pharmaceutical Co., Ltd., priority 1984, dated 1988)", "key": {"[1]": {"test": "Acute toxicity, intraperitoneal, mice", "type": "in vivo", "details": "for abnormality observed / survival of mice: 200 mg/Kg intraperitoneal, five ddY male mice, after 7 days; for LD50 at 168 h: mouse, in vivo, ip", "protocol": "Each of certain sample compounds (which had been obtained in Examples 6, 7, 10 and 15-17, which will be given herein) was dissolved in water and was then administered intraperitoneally at a dose of 200 mg/Kg to a group of five ddY male mice. Those mice were fed for 7 days while observing them."}, "[2]": {"tested_on": "platelet aggregation by arachidonic acid", "test": "Inhibition of aggregation of rabbit platelets (PRP) by arachidonic acid", "type": "cell-based", "details": "Oryctolagus cuniculus, arachidonic acid 1 mM, compound added 2 minutes before agent, read-out: 50% Platelet Aggregation Inhibitory Concentration (IC50), Arachidonic acid", "protocol": "(§1) Blood, which had been added with sodium citrate, was collected from a male rabbit (body weight: 3 Kg), which was then subjected suitably to centrifugation so that platelet-rich plasma (PRP) and platelet-poor plasma (PPP) were obtained. Inhibitory effects of certain sample compounds of this invention against aggregation by ADP (3 μM) and arachidonic acid (1 mM) were thereafter tested by a method known per se in the art. Each sample compound was dissolved in 5% dimethylsulfoxide (DMSO) and Tween 80 (trade mark) and was then added to PRP 2 minutes before addition of each of the aggregation agents to the PRP."}, "[3]": {"tested_on": "platelet aggregation by ADP", "test": "Inhibition of aggregation of rabbit platelets (PRP) by ADP", "type": "cell-based", "details": "Oryctolagus cuniculus, ADP 3 μM, compound added 2 minutes before agent, read-out: 50% Platelet Aggregation Inhibitory Concentration (IC50), ADP", "protocol": "as §1"}, "[4]": {"tested_on": "platelet aggregation by collagen", "test": "Platelet aggregation by collagen in PRP after oral administration to rats (ex vivo)", "details": "30 mg/Kg oral, male Wister rat, blood collected 2 hours after administration, 100 μg/ml collagen, read-out: Percent inhibition against aggregation, collagen", "protocol": "(§2) Each sample compound was orally administered at 30 mg/Kg to a male Wister rat (body weight: 220 g) which had fasted for 24 hours. Platelet-rich plasma was obtained from blood which had been collected 2 hours after the administration and added with sodium citrate. Changes in platelet aggregation upon addition of 60 μM of ADP or 100 μg/ml of collagen were observed. The number of platelets was adjusted to 6×10^5 platelets/mm^3 for aggregation by ADP and to 3×10^5 platelets/mm^3 for aggregation by collagen. Each of the sample compounds was dissolved in DMSO+Tween 80 (trade mark) prior to its administration."}, "[5]": {"tested_on": "platelet aggregation by ADP", "test": "Platelet aggregation by ADP in PRP after oral administration to rats (ex vivo)", "details": "30 mg/Kg oral, male Wister rat, blood collected 2 hours after administration, 60 μM ADP, read-out: Percent inhibition against aggregation, ADP", "protocol": "as §2"}, "[6]": {"details": "intraperitoneal, ddY male mice, 7 days observation"}}, "data": [{"smiles": "CCN(CC)CC#CC(OC(=O)c1cccnc1)c1ccccc1", "note": "(centres unmarked) [Example 6, N-(4-Nicotinoyloxy-4-phenyl-2-butynyl)-N,N-diethylamine]", "values": [{"measurement": "abnormality observed", "setting": "[1]", "value": "no abnormality was observed"}, {"measurement": "survival of mice", "setting": "[1]", "value": "all the mice were still alive"}, {"measurement": "LD50 at 168 h", "setting": "[1]; [6]", "value": "> 200", "unit": "mg/kg"}]}, {"smiles": "CN(C)CC#CC(=O)c1ccccc1", "note": "[Example 15, N-(4-Phenyl-4-oxo-2-butynyl)-N,N-dimethylamine]", "values": [{"measurement": "IC50", "setting": "[2]", "value": 4.7, "unit": "µg/mL"}, {"measurement": "LD50 at 168 h", "setting": "[1]; [6]", "value": "> 200", "unit": "mg/kg"}, {"measurement": "IC50", "setting": "[3]", "value": 21, "unit": "µg/mL"}]}, {"smiles": "CCN(CC)C/C=C/C(OC(=O)c1cccnc1)c1ccc(C)cc1", "note": "(centres unmarked) [Example 13]", "values": [{"measurement": "inhibition at 30 mg/kg", "setting": "[4]", "value": 31.5, "unit": "%"}, {"measurement": "inhibition at 30 mg/kg", "setting": "[5]", "value": 30.5, "unit": "%"}]}, {"smiles": "CCN(CC)CC#CC(OC(=O)c1cccnc1)c1ccc(C)cc1", "note": "(centres unmarked) [Example 7]", "values": [{"measurement": "inhibition at 30 mg/kg", "setting": "[4]", "value": 37.6, "unit": "%"}, {"measurement": "abnormality observed", "setting": "[1]", "value": "no abnormality was observed"}, {"measurement": "survival of mice", "setting": "[1]", "value": "all the mice were still alive"}, {"measurement": "LD50 at 168 h", "setting": "[1]", "value": "> 200", "unit": "mg/kg"}, {"measurement": "inhibition at 30 mg/kg", "setting": "[5]", "value": 20.1, "unit": "%"}]}, {"smiles": "CCN(CC)CC#CC(=O)c1ccccc1", "note": "[Example 17]", "values": [{"measurement": "IC50", "setting": "[2]", "value": 4.5, "unit": "µg/mL"}, {"measurement": "LD50 at 168 h", "setting": "[1]", "value": "> 200", "unit": "mg/kg"}, {"measurement": "IC50", "setting": "[3]", "value": 20, "unit": "µg/mL"}]}, {"smiles": "CCCN(CC)CC#CC(=O)c1ccccc1", "note": "[Example 16, N-(4-Phenyl-4-oxo-2-butynyl)-N-ethyl-N-n-propylamine]", "values": [{"measurement": "IC50", "setting": "[2]", "value": 4.3, "unit": "µg/mL"}, {"measurement": "LD50 at 168 h", "setting": "[1]; [6]", "value": "> 200", "unit": "mg/kg"}, {"measurement": "IC50", "setting": "[3]", "value": 18, "unit": "µg/mL"}]}, {"smiles": "CCN(CC)CC#CC(OC(=O)c1cccnc1)c1ccc(OC)cc1", "note": "(centres unmarked) [Example 10]", "values": [{"measurement": "abnormality observed", "setting": "[1]", "value": "no abnormality was observed"}, {"measurement": "survival of mice", "setting": "[1]", "value": "all the mice were still alive"}, {"measurement": "LD50 at 168 h", "setting": "[1]", "value": "> 200", "unit": "mg/kg"}]}, {"smiles": "CCN(CC)CC#CC(=O)c1ccc(OC)cc1", "note": "[Example 4]", "values": [{"measurement": "IC50", "setting": "[2]", "value": 3.6, "unit": "µg/mL"}, {"measurement": "IC50", "setting": "[3]", "value": 9, "unit": "µg/mL"}]}, {"smiles": "CCN(CC)CC#CC(=O)c1ccc(C)cc1", "note": "[Example 1, N-[4-(p-Methylphenyl)-4-oxo-2-butynyl]-N,N-diethylamine]", "values": [{"measurement": "IC50", "setting": "[2]", "value": 2.5, "unit": "µg/mL"}, {"measurement": "IC50", "setting": "[3]", "value": 7, "unit": "µg/mL"}]}]}
